Reference: patent publication US20230293458A1, “MULTIBIOTIC AGENTS AND METHODS OF USING THE SAME” (Flagship Pioneering Innovations V, Inc., priority 2017, published 2023)

Experiments:
[1] = Stability of multibiotic agents in Simulated Gastric Fluid (SGF); assay type: in vitro ADME; settings: simulated gastric fluid pH 1.6 with pepsin, 37° C., 1 μM
Description: Assay 3. Stability of multibiotic agents in Simulated Gastric Fluid (SGF). This assay can be used to assess the stability of a multibiotic agent in a stomach.
Medium was prepared by dissolving 2 g of sodium chloride in 0.6 L in ultrapure water (MilliQ®, Millipore Sigma, Darmstadt, Germany). The pH was adjusted to 1.6 with 1 N hydrochloric acid, and the volume was then adjusted to 1 L with purified water.
60 mg FaSSIF powder (Biorelevant™, London, UK) were dissolved in 500 mL buffer (above). Pepsin was added (0.1 mg/mL) (Millipore Sigma, Darmstadt, Germany), and the solution was stirred. The resulting SGF media were used fresh for each experiment.
Test compounds were dissolved in DMSO stock to 1 mM. An aliquot of the DMSO stock solution was removed and diluted in the SGF Media in 15 mL falcon tubes to generate a total compound concentration of 1 μM. A 1 mL aliquot was immediately removed and diluted once with 1 volume of acetonitrile for T0 timepoint. The mixture was sealed and mixed at 37° C. in an incubator. Aliquots (1 mL) were removed at regular intervals and immediately quenched by the addition of 1 volume of acetonitrile. The resulting samples were analyzed by LC/MS to determine degradation rates in SGF.

[2] = Stability of multibiotic agents in Simulated Intestinal Fluid (SIF); assay type: in vitro ADME; settings: simulated intestinal fluid pH 6.7 with pancreatin, 37° C., 1 μM
Description: Assay 2. Stability of multibiotic agents in Simulated Intestinal Fluid (SIF). This assay can be used to assess the stability of a multibiotic agent in a small intestine. Phosphate buffer was prepared by dissolving 0.42 g of sodium hydroxide pellets and 3.95 g of monobasic sodium phosphate monohydrate and 6.19 g of sodium chloride in ultrapure water (MilliQ®, Millipore Sigma, Darmstadt, Germany). The pH was adjusted to 6.7 using aq. HCl and aq. NaOH, as necessary, and the solution was diluted with ultrapure water to produce 1 L of the pH 6.7 buffer. 112 mg FaSSIF powder (Biorelevant™, London, UK) was dissolved in 50 mL of the pH 6.7 buffer. 2 to 3 mL of the resulting solution were then added to 500 mg pancreatin (Millipore Sigma, Darmstadt, Germany). The resulting mixture was agitated by finger tapping the vessel containing the mixture until milky suspension formed. At this time, the remainder of the 50 mL FaSSiF/pH 6.7 buffer solution was added. The resulting suspension was flipped upside down 10 times to produce SIF, which was used fresh. Test compounds are dissolved in DMSO stock to 1 mM. An aliquot of the DMSO stock solution is removed and diluted in the SIF media in 15 mL falcon tubes to produce a mixture with a tested compound concentration of 1 μM. A 1 mL aliquot is immediately removed and diluted once with 1 volume of acetonitrile for T0 timepoint. The mixture is sealed and agitated at 37° C. in an incubator. Aliquots (1 mL) are removed at regular intervals and immediately quenched by the addition of 1 volume of acetonitrile. The resulting samples are analyzed by LC/MS to determine degradation rates.

CCCC(=O)O[C@@H]1[C@H](OC(=O)CCC)COC(Oc2ccc(N)cc2C(=O)O)[C@@H]1OC(=O)CCC (stereo partly drawn) [Example 117, 5-amino-2-[(3R,4R,5R)-3,4,5-tri(butanoyloxy)tetrahydropyran-2-yl]oxy-benzoic acid]
Assay 2 (SGF) (% Remaining @ 4 hours) [1]: C (>75% of the tested compound remaining) | Assay 3 (SIF) (% @ Remaining 4 hours) [2]: C (>75% of the tested compound remaining)

CC(C)(COC(=O)/C=C/c1c[nH]c2ccccc12)[C@@H](OC(=O)/C=C/c1c[nH]c2ccccc12)C(=O)NCCCOC(=O)/C=C/c1c[nH]c2ccccc12 [Example 125, 3-[[(2R)-2,4-bis[[(E)-3-(1H-indol-3-yl)prop-2-enoyl]oxy]-3,3-dimethyl-butanoyl]amino]propyl (E)-3-(1H-indol-3-yl)prop-2-enoate]
Assay 2 (SGF) (% Remaining @ 4 hours) [1]: C (>75% of the tested compound remaining) | Assay 3 (SIF) (% @ Remaining 4 hours) [2]: C (>75% of the tested compound remaining)

CCCC(=O)N1CCN(C(=O)CCC)CC1 [Example 130, 1-(4-butanoylpiperazin-1-yl)butan-1-one]
Assay 2 (SGF) (% Remaining @ 4 hours) [1]: C (>75% of the tested compound remaining) | Assay 3 (SIF) (% @ Remaining 4 hours) [2]: C (>75% of the tested compound remaining)

C[C@@H]1CCOC(C)(C(=O)Oc2ccc(/C=C/c3cc(OC(=O)C4(C)OCC[C@@H](C)O4)cc(OC(=O)C4(C)OCC[C@@H](C)O4)c3)cc2)O1 (stereo partly drawn) [Example 182, [4-[(E)-2-[3,5-bis[[(4R)-2,4-dimethyl-1,3-dioxane-2-carbonyl]oxy]phenyl]vinyl]phenyl] (4R)-2,4-dimethyl-1,3-dioxane-2-carboxylate]
Assay 2 (SGF) (% Remaining @ 4 hours) [1]: C (>75% of the tested compound remaining) | Assay 3 (SIF) (% @ Remaining 4 hours) [2]: C (>75% of the tested compound remaining)

CC(=O)OCC1(OC(C)=O)OC[C@@H](OC(C)=O)[C@H](OC(C)=O)[C@@H]1OC(C)=O (stereo partly drawn) [Example 162, [(3S,4S,5R)-2,3,4,5-tetraacetoxytetrahydropyran-2-yl]methyl acetate]
Assay 2 (SGF) (% Remaining @ 4 hours) [1]: C (>75% of the tested compound remaining) | Assay 3 (SIF) (% @ Remaining 4 hours) [2]: B (25-75% of the tested compound remaining)

C=C1CC[C@H](OC(=O)C2OCC[C@@H](C)O2)C/C1=C/C=C1\CCC[C@]2(C)[C@@H]([C@H](C)CCCC(C)C)CC[C@@H]12 (stereo partly drawn) [Example 186, [(1S,3Z)-3-[(2E)-2-[(1R,3aS,7aR)-1-[(1R)-1,5-dimethylhexyl]-7a-methyl-2,3,3a,5,6,7-hexahydro-1H-inden-4-ylidene]ethylidene]-4-methylene-cyclohexyl] (4R)-4-methyl-1,3-dioxane-2-carboxylate]
Assay 2 (SGF) (% Remaining @ 4 hours) [1]: C (>75% of the tested compound remaining) | Assay 3 (SIF) (% @ Remaining 4 hours) [2]: C (>75% of the tested compound remaining)

O=C(CCc1c[nH]c2ccccc12)OC[C@@H](OC(=O)CCc1c[nH]c2ccccc12)[C@H]1OC[C@H](OC(=O)CCc2c[nH]c3ccccc23)[C@H]1OC(=O)CCc1c[nH]c2ccccc12 [Example 107, [(2R)-2-[(2R,3R,4S)-3,4-bis[3-(1H-indol-3-yl)propanoyloxy]tetrahydrofuran-2-yl]-2-[3-(1H-indol-3-yl)propanoyloxy]ethyl] 3-(1H-indol-3-yl)propanoate]
Assay 2 (SGF) (% Remaining @ 4 hours) [1]: C (>75% of the tested compound remaining) | Assay 3 (SIF) (% @ Remaining 4 hours) [2]: B (25-75% of the tested compound remaining)

O=C(Cc1c[nH]c2ccccc12)OC[C@@H](OC(=O)Cc1c[nH]c2ccccc12)[C@H]1OC[C@H](OC(=O)Cc2c[nH]c3ccccc23)[C@H]1OC(=O)Cc1c[nH]c2ccccc12 [Example 106, [(2R)-2-[(2R,3R,4S)-3,4-bis[[2-(1H-indol-3-yl)acetyl]oxy]tetrahydrofuran-2-yl]-2-[2-(1H-indol-3-yl)acetyl]oxy-ethyl] 2-(1H-indol-3-yl)acetate]
Assay 2 (SGF) (% Remaining @ 4 hours) [1]: C (>75% of the tested compound remaining) | Assay 3 (SIF) (% @ Remaining 4 hours) [2]: C (>75% of the tested compound remaining)

C[C@@H](O)CC(=O)O[C@H]1CO[C@H]2[C@@H]1OC[C@H]2OC(=O)C[C@@H](C)O [Example 78, [(3S,3aR,6R,6aR)-6-[(3R)-3-hydroxybutanoyl]oxy-2,3,3a,5,6,6a-hexahydrofuro[3,2-b]furan-3-yl] (3R)-3-hydroxybutanoate]
Assay 2 (SGF) (% Remaining @ 4 hours) [1]: C (>75% of the tested compound remaining) | Assay 3 (SIF) (% @ Remaining 4 hours) [2]: B (25-75% of the tested compound remaining)

CC(=O)Oc1ccc2c(c1)oc(=O)c1cc(OC(C)=O)c(OC(C)=O)cc12 [Example 51, (8,9-diacetoxy-6-oxo-benzo[c]chromen-3-yl) acetate]
Assay 2 (SGF) (% Remaining @ 4 hours) [1]: C (>75% of the tested compound remaining) | Assay 3 (SIF) (% @ Remaining 4 hours) [2]: C (>75% of the tested compound remaining)

CC(=O)OC1OC[C@H](OC(C)=O)[C@H](OC(C)=O)[C@H]1OC(C)=O (stereo partly drawn) [Example 138, [(3S,4S,5R)-4,5,6-triacetoxytetrahydropyran-3-yl] acetate]
Assay 2 (SGF) (% Remaining @ 4 hours) [1]: C (>75% of the tested compound remaining) | Assay 3 (SIF) (% @ Remaining 4 hours) [2]: C (>75% of the tested compound remaining)

CC(=O)OC[C@H](OC(C)=O)[C@@H](COC(C)=O)OC(C)=O [Example 81, (2R, 3S)-butane-1,2,3,4-tetrayl tetraacetate]
Assay 2 (SGF) (% Remaining @ 4 hours) [1]: C (>75% of the tested compound remaining) | Assay 3 (SIF) (% @ Remaining 4 hours) [2]: C (>75% of the tested compound remaining)

CCCC(=O)OC1OC[C@H](OC(=O)CCC)[C@H](OC(=O)CCC)[C@H]1OC(=O)CCC (stereo partly drawn) [Example 139, [(3S,4S,5R)-4,5,6-tri(butanoyloxy)tetrahydropyran-3-yl] butanoate]
Assay 2 (SGF) (% Remaining @ 4 hours) [1]: C (>75% of the tested compound remaining) | Assay 3 (SIF) (% @ Remaining 4 hours) [2]: C (>75% of the tested compound remaining)

Cc1ncc(CO)c(COC(=O)/C=C/c2c[nH]c3ccccc23)c1OC(=O)/C=C/c1c[nH]c2ccccc12 [Example 142, [5-(hydroxymethyl)-3-[(E)-3-(1H-indol-3-yl)prop-2-enoyl]oxy-2-methyl-4-pyridyl]methyl (E)-3-(1H-indol-3-yl)prop-2-enoate]
Assay 2 (SGF) (% Remaining @ 4 hours) [1]: C (>75% of the tested compound remaining) | Assay 3 (SIF) (% @ Remaining 4 hours) [2]: C (>75% of the tested compound remaining)

O=C(Cc1c[nH]c2ccccc12)O[C@H]1OC[C@@H](OC(=O)Cc2c[nH]c3ccccc23)[C@@H](OC(=O)Cc2c[nH]c3ccccc23)[C@H]1OC(=O)Cc1c[nH]c2ccccc12 [Example 145, [(3R,4R,5R,6R)-4,5,6-tris[[2-(1H-indol-3-yl)acetyl]oxy]tetrahydropyran-3-yl] 2-(1H-indol-3-yl)acetate]
Assay 2 (SGF) (% Remaining @ 4 hours) [1]: C (>75% of the tested compound remaining) | Assay 3 (SIF) (% @ Remaining 4 hours) [2]: A (<25% of the tested compound remaining)

Cc1ncc(COC(=O)CCc2c[nH]c3ccccc23)c(COC(=O)CCc2c[nH]c3ccccc23)c1OC(=O)CCc1c[nH]c2ccccc12 [Example 103, [5-[3-(1H-indol-3-yl)propanoyloxy]-4-[3-(1H-indol-3-yl)propanoyloxymethyl]-6-methyl-3-pyridyl]methyl3-(1H-indol-3-yl)propanoate]
Assay 2 (SGF) (% Remaining @ 4 hours) [1]: C (>75% of the tested compound remaining) | Assay 3 (SIF) (% @ Remaining 4 hours) [2]: A (<25% of the tested compound remaining)

CCCC(=O)OCCCNC(=O)[C@H](OC(=O)CCC)C(C)(C)COC(=O)CCC [Example 90, 3-[[(2R)-2,4-di(butanoyloxy)-3,3-dimethyl-butanoyl]amino] propyl butanoate]
Assay 2 (SGF) (% Remaining @ 4 hours) [1]: C (>75% of the tested compound remaining) | Assay 3 (SIF) (% @ Remaining 4 hours) [2]: A (<25% of the tested compound remaining)

O=C(Cc1c[nH]c2ccccc12)Oc1ccc2c(c1)oc(=O)c1cc(OC(=O)Cc3c[nH]c4ccccc34)c(OC(=O)Cc3c[nH]c4ccccc34)cc12 [Example 55, [8,9-bis[[2-(1H-indol-3-yl)acetyl]oxy]-6-oxo-benzo[c]chromen-3-yl] 2-(1H-indol-3-yl)acetate]
Assay 2 (SGF) (% Remaining @ 4 hours) [1]: C (>75% of the tested compound remaining) | Assay 3 (SIF) (% @ Remaining 4 hours) [2]: B (25-75% of the tested compound remaining)

CCC(=O)OC1O[C@@H](C)[C@@H](OC(=O)CC)[C@@H](OC(=O)CC)[C@@H]1OC(=O)CC (stereo partly drawn) [Example 157, [(2S,3R,4R,5S)-2-methyl-4,5,6-tri(propanoyloxy)tetrahydropyran-3-yl] propanoate]
Assay 2 (SGF) (% Remaining @ 4 hours) [1]: C (>75% of the tested compound remaining) | Assay 3 (SIF) (% @ Remaining 4 hours) [2]: A (<25% of the tested compound remaining)
